# Data taken from patent publication EP0001618A2, “Process for the preparation of di-N-oxides and their pharmaceutical use” (BAYER AG, priority 1977, dated 1979).
# Tested on: E. coli Neumann
# Assay: Subcutaneous ED100 in infected mice
# Format: in vivo
# Details: Escherichia coli, sc, mice infected with E. coli Neumann, mg/kg body weight, ED100 = dose that cures 100 % of the animals, read-out: Subkutane ED100 bei infizierten Mäusen
smiles,measurement,value
Cc1c(C(=O)N2CN(C)CCN(C)C2)[n+]([O-])c2ccccc2[n+]1[O-] [Beispiel 1],ED100,5 to 10 mg/kg
